Experimental data published in patent publication US20230123334A1, “AMINO LIPID COMPOUND, PREPARATION METHOD THEREFOR, AND APPLICATION THEREOF” (SHENZHEN SHENXIN BIOTECHNOLOGY CO., LTD., priority 2020, published 2023).

Columns and labels:
HEK293 cells [1] = assay: Preliminary screening as mRNA vectors, EGFP mRNA transfection of HEK293 cells; type: cell-based; conditions: 96-well plates, EGFP mRNA 50 ng per well, percentage of GFP fluorescent cells relative to total number of cells (Hoechst)
Outline: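 Screening format: EGFP mRNA transfection (50 ng/well) into HEK293 in 10% FBS-supplemented DMEM. Percent green fluorescent cells, normalised to Hoechst nuclear count, gave the value; Lipofectamine2000 was the reference transfectant.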

HEK293 cells [2] = assay: Preliminary screening as DNA vectors, GFP transfection of HEK293 cells; type: cell-based; conditions: HEK293 cells; lipid/DOPE liposome with 75 ng plasmid DNA (psin-EGFP-IRES-Puro); number of cells expressing GFP divided by total number of nuclei (Hoechst)
Outline: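 First, amino lipid and DOPE were vortexed in sodium acetate buffer (pH 5.6) to form liposomes. Next, these were held with 75 ng EGFP plasmid at room temperature for 30 min. Finally, HEK293 cells were added, cultured at 37° C., Hoechst-stained, and GFP+/total nuclei scored by imaging.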

| SMILES | Absolute mRNA transfection efficiency in HEK293 cells (HEK293 cells [1]; HEK293 cells) | Absolute DNA transfection efficiency in HEK293 cells (HEK293 cells [2]) | Absolute mRNA transfection efficiency in HEK293 cells (HEK293 cells [1]) |
| --- | --- | --- | --- |
| CCCCCCCCCCCCN(CCCCCCCCCCCC)c1nc(NCCN(C)C)nc(N(CCCCCCCCCCCC)CCCCCCCCCCCC)n1 [2N12^2N12D1] | 0.1% | 0.4% | – |
| CCCCCCCCCCCCN(CCCCCCCCCCCC)c1nc(NCCN2CCOCC2)nc(N(CCCCCCCCCCCC)CCCCCCCCCCCC)n1 [2N12^2N12D2] | 1.9% | 0.0% | – |
| CCCCCCCCCCCCN(CCCCCCCCCCCC)c1nc(NCCN2CCCC2)nc(N(CCCCCCCCCCCC)CCCCCCCCCCCC)n1 [2N12^2N12D3] | 0.0% | 1.3% | – |
| CCCCCCCCCCCCN(CCCCCCCCCCCC)c1nc(NCCN2CCCCC2)nc(N(CCCCCCCCCCCC)CCCCCCCCCCCC)n1 [2N12^2N12D4] | 2.6% | 0.0% | – |
| CCCCCCCCCCCCN(CCCCCCCCCCCC)c1nc(NCCN2CCN(C)CC2)nc(N(CCCCCCCCCCCC)CCCCCCCCCCCC)n1 [2N12^2N12D5] | 2.7% | 0.0% | – |
| CCCCCCCCCCCCN(CCCCCCCCCCCC)c1nc(NCCCN(C)C)nc(N(CCCCCCCCCCCC)CCCCCCCCCCCC)n1 [2N12^2N12D6] | 0.2% | 0.0% | – |
| CCCCCCCCCCCCN(CCCCCCCCCCCC)c1nc(NCCN(CC)CC)nc(SCCCCCC)n1 [D7S6^2N12] | – | – | 0.2% |
| CCCCCCCCCCCCN(CCCCCCCCCCCC)c1nc(NCCN(CC)CC)nc(SCCCCCCC)n1 [D7S7^2N12] | – | – | 1.2% |
| CCCCCCCCCCCCN(CCCCCCCCCCCC)c1nc(NCCN(CC)CC)nc(SCCCCCCCC)n1 [D7S8^2N12] | – | – | 1.3% |
| CCCCCCCCCCCCN(CCCCCCCCCCCC)c1nc(NCCN(CC)CC)nc(SCCCCCCCCC)n1 [D7S9^2N12] | – | – | 0.2% |
| CCCCCCCCCCCCN(CCCCCCCCCCCC)c1nc(NCCN(CC)CC)nc(SCCCCCCCCCC)n1 [D7S10^2N12] | – | – | 0.0% |
| CCCCCCCCCCCCN(CCCCCCCCCCCC)c1nc(NCCN(CC)CC)nc(SCCCCCCCCCCC)n1 [D7S11^2N12] | – | – | 0.7% |
| CCCCCCCCCCCCSc1nc(NCCN(CC)CC)nc(N(CCCCCCCCCCCC)CCCCCCCCCCCC)n1 [D7S12^2N12] | – | – | 1.9% |
| CCCCCCCCCCCCCCSc1nc(NCCN(CC)CC)nc(N(CCCCCCCCCCCC)CCCCCCCCCCCC)n1 [D7S14^2N12] | – | – | 0.1% |
| CCCCCCCCCCCCCCCSc1nc(NCCN(CC)CC)nc(N(CCCCCCCCCCCC)CCCCCCCCCCCC)n1 [D7S15^2N12] | – | – | 1.8% |
| CCCCCCCCCCCCCCCCSc1nc(NCCN(CC)CC)nc(N(CCCCCCCCCCCC)CCCCCCCCCCCC)n1 [D7S16^2N12] | – | – | 0.8% |
| CCCCCCCCCCCCCCCCCCSc1nc(NCCN(CC)CC)nc(N(CCCCCCCCCCCC)CCCCCCCCCCCC)n1 [D7S18^2N12] | – | – | 0.0% |
| CCCCCCCCCCCCN(CCCCCCCCCCCC)c1nc(NCCCN2CCOCC2)nc(SCCCCCC)n1 [D8S6^2N12] | – | – | 0.0% |
| CCCCCCCCCCCCN(CCCCCCCCCCCC)c1nc(NCCCN2CCOCC2)nc(SCCCCCCC)n1 [D8S7^2N12] | – | – | 0.6% |
| CCCCCCCCCCCCN(CCCCCCCCCCCC)c1nc(NCCCN2CCOCC2)nc(SCCCCCCCC)n1 [D8S8^2N12] | – | – | 0.1% |
| CCCCCCCCCCCCN(CCCCCCCCCCCC)c1nc(NCCCN2CCOCC2)nc(SCCCCCCCCC)n1 [D8S9^2N12] | – | – | 0.3% |
| CCCCCCCCCCCCN(CCCCCCCCCCCC)c1nc(NCCCN2CCOCC2)nc(SCCCCCCCCCC)n1 [D8S10^2N12] | – | – | 0.0% |
| CCCCCCCCCCCCN(CCCCCCCCCCCC)c1nc(NCCCN2CCOCC2)nc(SCCCCCCCCCCC)n1 [D8S11^2N12] | – | – | 0.4% |
| CCCCCCCCCCCCSc1nc(NCCCN2CCOCC2)nc(N(CCCCCCCCCCCC)CCCCCCCCCCCC)n1 [D8S12^2N12] | – | – | 3.4% |
| CCCCCCCCCCCCCCSc1nc(NCCCN2CCOCC2)nc(N(CCCCCCCCCCCC)CCCCCCCCCCCC)n1 [D8S14^2N12] | – | – | 0.1% |

| SMILES | Absolute mRNA transfection efficiency in HEK293 cells (HEK293 cells [1]; HEK293 cells) | Absolute DNA transfection efficiency in HEK293 cells (HEK293 cells [2]) | Absolute mRNA transfection efficiency in HEK293 cells (HEK293 cells [1]) |
| --- | --- | --- | --- |
| CCCCCCCCCCCCCCCSc1nc(NCCCN2CCOCC2)nc(N(CCCCCCCCCCCC)CCCCCCCCCCCC)n1 [D8S15^2N12] | – | – | 2.9% |
| CCCCCCCCCCCCCCCCSc1nc(NCCCN2CCOCC2)nc(N(CCCCCCCCCCCC)CCCCCCCCCCCC)n1 [D8S16^2N12] | – | – | 0.0% |
| CCCCCCCCCCCCCCCCCCSc1nc(NCCCN2CCOCC2)nc(N(CCCCCCCCCCCC)CCCCCCCCCCCC)n1 [D8S18^2N12] | – | – | 0.0% |
| CCCCCCCCCCCCN(CCCCCCCCCCCC)c1nc(NCCCN2CCN(C)CC2)nc(SCCCCCC)n1 [D9S6^2N12] | – | – | 0.1% |
| CCCCCCCCCCCCN(CCCCCCCCCCCC)c1nc(NCCCN2CCN(C)CC2)nc(SCCCCCCC)n1 [D9S7^2N12] | – | – | 1.0% |
| CCCCCCCCCCCCN(CCCCCCCCCCCC)c1nc(NCCCN2CCN(C)CC2)nc(SCCCCCCCC)n1 [D9S8^2N12] | – | – | 0.6% |
| CCCCCCCCCCCCN(CCCCCCCCCCCC)c1nc(NCCCN2CCN(C)CC2)nc(SCCCCCCCCC)n1 [D9S9^2N12] | – | – | 0.3% |
| CCCCCCCCCCCCN(CCCCCCCCCCCC)c1nc(NCCCN2CCN(C)CC2)nc(SCCCCCCCCCC)n1 [D9S10^2N12] | – | – | 0.3% |
| CCCCCCCCCCCCN(CCCCCCCCCCCC)c1nc(NCCCN2CCN(C)CC2)nc(SCCCCCCCCCCC)n1 [D9S11^2N12] | – | – | 0.0% |
| CCCCCCCCCCCCSc1nc(NCCCN2CCN(C)CC2)nc(N(CCCCCCCCCCCC)CCCCCCCCCCCC)n1 [D9S12^2N12] | – | – | 0.8% |
| CCCCCCCCCCCCCCSc1nc(NCCCN2CCN(C)CC2)nc(N(CCCCCCCCCCCC)CCCCCCCCCCCC)n1 [D9S14^2N12] | – | – | 0.1% |
| CCCCCCCCCCCCCCCSc1nc(NCCCN2CCN(C)CC2)nc(N(CCCCCCCCCCCC)CCCCCCCCCCCC)n1 [D9S15^2N12] | – | – | 0.4% |
| CCCCCCCCCCCCCCCCSc1nc(NCCCN2CCN(C)CC2)nc(N(CCCCCCCCCCCC)CCCCCCCCCCCC)n1 [D9S16^2N12] | – | – | 2.7% |
| CCCCCCCCCCCCCCCCCCSc1nc(NCCCN2CCN(C)CC2)nc(N(CCCCCCCCCCCC)CCCCCCCCCCCC)n1 [D9S18^2N12] | – | – | 0.0% |
| CCCCCCCCCCCCN(CCCCCCCCCCCC)c1nc(NCC2CCN(C)CC2)nc(SCCCCCC)n1 [D10S6^2N12] | – | – | 0.1% |
| CCCCCCCCCCCCN(CCCCCCCCCCCC)c1nc(NCC2CCN(C)CC2)nc(SCCCCCCC)n1 [D10S7^2N12] | – | – | 1.4% |
| CCCCCCCCCCCCN(CCCCCCCCCCCC)c1nc(NCC2CCN(C)CC2)nc(SCCCCCCCC)n1 [D10S8^2N12] | – | – | 1.5% |
| CCCCCCCCCCCCN(CCCCCCCCCCCC)c1nc(NCC2CCN(C)CC2)nc(SCCCCCCCCC)n1 [D10S9^2N12] | – | – | 7.7% |
| CCCCCCCCCCCCN(CCCCCCCCCCCC)c1nc(NCC2CCN(C)CC2)nc(SCCCCCCCCCC)n1 [D10S10^2N12] | – | – | 0.2% |
| CCCCCCCCCCCCN(CCCCCCCCCCCC)c1nc(NCC2CCN(C)CC2)nc(SCCCCCCCCCCC)n1 [D10S11^2N12] | – | – | 0.0% |
| CCCCCCCCCCCCSc1nc(NCC2CCN(C)CC2)nc(N(CCCCCCCCCCCC)CCCCCCCCCCCC)n1 [D10S12^2N12] | – | – | 3.4% |
| CCCCCCCCCCCCCCSc1nc(NCC2CCN(C)CC2)nc(N(CCCCCCCCCCCC)CCCCCCCCCCCC)n1 [D10S14^2N12] | – | – | 0.2% |
| CCCCCCCCCCCCCCCSc1nc(NCC2CCN(C)CC2)nc(N(CCCCCCCCCCCC)CCCCCCCCCCCC)n1 [D10S15^2N12] | – | – | 14.3% |
| CCCCCCCCCCCCCCCCSc1nc(NCC2CCN(C)CC2)nc(N(CCCCCCCCCCCC)CCCCCCCCCCCC)n1 [D10S16^2N12] | – | – | 0.2% |
| CCCCCCCCCCCCCCCCCCSc1nc(NCC2CCN(C)CC2)nc(N(CCCCCCCCCCCC)CCCCCCCCCCCC)n1 [D10S18^2N12] | – | – | 0.0% |
